pIC50: −log10 of the molar value. Marks after values point to notes of the source that are not given here.
Experiments:
influenza virus A/H5N2 = type: binding
[1] = test system: influenza virus A/H1N1/NIB23; assay: fetuin binding inhibition test (FBI-test), influenza virus receptor binding inhibition assay
[2] = test system: influenza virus A/Н3N2/29/90; assay: as above
[3] = association in aqueous solution by dynamic light scattering (DLS); type: physicochemical
[4] = association (tectomer formation) on mica surface by scanning force microscopy (SFM); type: physicochemical; settings: 0.1 mg/mL; for tectomer layer height on mica: рН 6.5, tapping mode in air
[5] = FBI-test, value in parentheses for monomeric sialoside

Compound: CC(=O)N[C@H]1[C@H]([C@H](O)[C@H](O)CO)O[C@@](O[C@H]2[C@@H](O)[C@@H](CO)O[C@@H](O[C@H]3[C@H](O)[C@@H](O)[C@H](O)O[C@@H]3CO)[C@@H]2O)(C(=O)O)C[C@@H]1O [3’SL, Neu5Acα2-3Galβ1-4Glcβ]
- pIC50 (influenza virus A/H5N2): 3.82
- Relative activity (influenza virus A/H5N2): 1(150)^b

Compound: CC(=O)N[C@H]1[C@H]([C@H](O)[C@H](O)CO)O[C@](OC[C@H]2O[C@@H](O[C@H]3[C@H](O)[C@@H](NC(C)=O)C(O)O[C@@H]3CO)[C@H](O)[C@@H](O)[C@H]2O)(C(=O)O)C[C@@H]1O (some centres unmarked) [6’SLN, Neu5Acα2-6Galβ1-4GlcNAcβ]
- pIC50 [1, 5]: 3.82
- Relative activity ([1]; inhibition of binding of fetuin peroxidase conjugate to immobilized virus, related to monomer 6’SLN = 1): 1

Compound: CC(=O)N[C@H]1[C@H]([C@H](O)[C@H](O)CO)O[C@@](OCc2ccccc2)(C(=O)O)C[C@@H]1O [Neu5AcαOBn]
- pIC50 [2, 5]: 3.82
- Relative activity ([2]; inhibition of binding of fetuin peroxidase conjugate to virus immobilized on plastic, related to monomer Neu5AcαOBn = 1): 1

Compound: Н-Gly4NH(СН2)10NHGly4-Н
- size of associates stable in aqueous media ([3]; neutral and basic media (рН 6.5 and 8.5, after NaHCO3 or Na2CO3), concentration ≤0.1 mg/mL): 800–1200 nm
- tectomer layer height on mica [4]: 3.7–4.0 nm

Compound: Н-Gly4NH(СН2)10NHGly4-Н·2HCl
- concentration at which the peptide associates in acidic solution ([3]; aqueous solution, рН < 5): ≥ 500 µg/mL

Compound: Н-Gly5-NH(СН2)2NH-Gly5-Н
- tectomer layer height on mica [4]: 3.3 nm
- planar dimensions of islet-like tectomers on mica ([4]; рН 6.5, texp = 10 min, tapping mode in air): 500–700 nm

Source: publication PMC4077438, “Biantennary oligoglycines and glyco-oligoglycines self-associating in aqueous medium” (Beilstein Journal of Organic Chemistry, 2014)
